Source: patent US12263248B2, “Compounds and compositions for intracellular delivery of therapeutic agents” (ModernaTX, Inc., priority 2018, dated 2025)

Columns and labels:
[1] = Particle size and polydispersity index of nanoparticle compositions (Zetasizer Nano ZS); assay type: physicochemical; conditions: Table 1A; for Size (nm): lipid:DSPC:cholesterol:PEG-DMG 50:10:38.5:1.5 mol %
Method in brief: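 Values are size and PDI readings from a Zetasizer Nano ZS. Measurements are taken in 1×PBS; zeta potential, by contrast, uses 15 mM PBS.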

luciferase (Luc) mRNA [2] = assay: Luc expression in liver, lung, spleen and femur 6 hours after intravenous administration; assay type: in vivo; conditions: mice, 0.5 mpk; for Total Flux Liver / Total Flux Lung / Total Flux Spleen: intravenous
Method in brief: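 LNP-formulated mRNA given IV to mice (n=3) at 0.5 mpk; at 6 h, bioluminescence imaged ex vivo 15 min after IP D-luciferin (15 mg/mL, 200 μL), organs imaged within 25 min. Values are total flux by region of interest.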

[3] = Encapsulation efficiency of RNA (QUANT-IT RIBOGREEN RNA assay); assay type: physicochemical; conditions: Table 1A
Method in brief: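 RiboGreen fluorescence (ex ~480, em ~520 nm) compared between intact samples and Triton X-100-lysed samples after 15 min at 37 °C in TE buffer, pH 7.5. Percent free RNA is the blank-corrected intact/disrupted ratio.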

luciferase (Luc) mRNA [4] = assay: Luc expression (total flux) after intramuscular administration; assay type: in vivo, mice; conditions: 6 hours after intramuscular administration, Luc mRNA and H10 mRNA
Protocol: In order to monitor how effectively various nanoparticle compositions deliver therapeutic and/or prophylactics to targeted cells, different nanoparticle compositions including a particular therapeutic and/or prophylactic (for example, a modified or naturally occurring RNA such as an mRNA) are prepared and administered to rodent populations. Mice are intravenously, intramuscularly, intraarterially, or intratumorally administered a single dose including a nanoparticle composition with a formulation such as those provided in Example 3. In some instances, mice may be made to inhale doses. Dose sizes may range from 0.001 mg/kg to 10 mg/kg, where 10 mg/kg describes a dose including 10 mg of a therapeutic and/or prophylactic in a nanoparticle composition for each 1 kg of body mass of the mouse. A control composition including PBS may also be employed.
Sample formulations including both modified luciferase (Luc) mRNA and H10 mRNA were prepared and administered intramuscularly and the resulting expression and immunogenicity were evaluated simultaneously. Formulations including compounds according to Formula (I), (IA), (IB), (II), (IIa), (IIb), (IIc), (IId), (IIe), (IIf), (IIg), (III), (VI), (VI-a), (VII), (VIII), (VIIa), (VIIIa), (VIIIb), (VIIb-1), (VIIb-2), (VIIb-3), (VIIc), (VIId), (VIIIc), or (VIIId) were prepared and administered at doses of 0.001 and 0.01 mpk (e.g., doses of 0.0005 mpk of a formulation including Luc mRNA and a formulation including H10 mRNA or doses of 0.005 mpk of a formulation including Luc mRNA and a formulation including H10 mRNA).
Sample formulations including modified luciferase (Luc) mRNA prepared and administered intramuscularly and the resulting expression and immunogenicity were evaluated simultaneously. Formulations including compounds according to Formula (I), (IA), (IB), (II), (IIa), (IIb), (IIc), (IId), (IIe), (IIf), (IIg), (III), (VI), (VI-a), (VII), (VIII), (VIIa), (VIIIa), (VIIIb), (VIIb-1), (VIIb-2), (VIIb-3), (VIIc), (VIId), (VIIIc), or (VIIId) were prepared and administered at dose of and 0.01 mpk.

luciferase (Luc) mRNA [5] = assay: Luc expression, whole body bioluminescence after intravenous administration to mice; assay type: in vivo; conditions: for Total Flux 3 hours / Total Flux 6 hours / Total Flux 24 hours: Luc mRNA; for flux at all timepoints measured: 3, 6 and 24 hour, in words; for 6 h Lipid/MC3 Avg. Luc Expression / Fold increase AUC Lipid/MC3 / AUC (h * p/s): Table 3C; for AUC (h * p/s) / AUC (p/s * h): Luc; for Lipid/MC3 AUC / AUC (p/s * h): Table 3D, intravenous
Method in brief: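 Bioluminescence, read as region-of-interest total flux at 3, 6 and 24 h, followed a single 0.5 mg/kg intravenous dose of Luc mRNA-loaded nanoparticles in mice (n=6). Luciferin substrate (200 μL, 15 mg/mL in PBS) was injected intraperitoneally into CD-1 mice 15 minutes ahead of each imaging point.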

[6] = Apparent (surface) pKa of the LNP formulation (TNS assay); assay type: physicochemical; conditions: Table 1A
Method in brief: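 Fluorescence of TNS probe added to LNP samples (mRNA 0.04 mg/mL) was read across 21 buffers of pH about 3-12, triplicate per pH. The inflection point of the sigmoidal fluorescence-vs-pH curve, […], gives apparent pKa; method validated in 1× PBS and Tris/sucrose buffer.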

Structure (SMILES) | PDI [1] | Size (nm) [1] [nm] | Total Flux Liver (luciferase (Luc) mRNA [2]) | Total Flux Lung (luciferase (Luc) mRNA [2]) | Total Flux Spleen (luciferase (Luc) mRNA [2]) | EE (%) [3] [%] | Total Flux 3 hours (luciferase (Luc) mRNA [5]; mice, i.v., 0.5 mg/kg) | Total Flux 6 hours (luciferase (Luc) mRNA [5]; mice, i.v., 0.5 mg/kg) | Total Flux 24 hours (luciferase (Luc) mRNA [5]; mice, i.v., 0.5 mg/kg) | pKa [6] | 6 h Lipid/MC3 Avg. Luc Expression (luciferase (Luc) mRNA [5]; i.v. administration) | Fold increase AUC Lipid/MC3 (luciferase (Luc) mRNA [5]; i.v. administration) | AUC (h * p/s) (luciferase (Luc) mRNA [5]; i.v. administration) | Lipid/MC3 AUC (luciferase (Luc) mRNA [5]) | AUC (p/s * h) (luciferase (Luc) mRNA [5]) | also measured
CCCCCCCCCOC(=O)CCCCCCCN(CCO)CCCCCCCC(=O)OC(CCCC)CCCC [Compound 57, nonan-5-yl 8-((2-hydroxyethyl)(8-(nonyloxy)-8-oxooctyl)amino) octanoate] | 0.16 | 128.4 | 9.36E+05 | 3.18E+04 | 2.47E+06 | 94.33 | 6.69E+06 | 6.21E+06 | 4.16E+05 |  |  |  |  |  |  | Total flux, 0.001 mpk Dose (luciferase (Luc) mRNA [4]; 0.001 mpk): 1.16E+05 p/s; Total flux, 0.01 mpk Dose (luciferase (Luc) mRNA [4]; 0.01 mpk): 2.23E+05 p/s; Fold increase in total body Luc Flux relative to MC3 at 6 h (luciferase (Luc) mRNA [5]; Table 3A, i.v. administration): 0.00056; flux at all timepoints measured (luciferase (Luc) mRNA [5]; mice, i.v., 0.5 mg/kg): significantly lower flux
CCCCCCCCC(C)OC(=O)CCCCCCCN(CCO)CCCCCCCOC(=O)C(CCCCCCCC)CCCCCCCC (stereo not shown) [Compound 135, 7-((8-(Decan-2-yloxy)-8-oxooctyl)(2-hydroxyethyl)amino)heptyl 2-octyldecanoate] | 0.130 | 89.5 | 1.65E+10 | 2.71E+07 | 1.39E+08 | 90.20 | 1.24E+11 | 9.90E+10 | 2.51E+09 | 6.47 | 13.6 | 15.2 | 1.25E+12 |  |  | Flux in the liver (luciferase (Luc) mRNA [2]; i.v., in words): highest; total flux at 3 hours (luciferase (Luc) mRNA [5]; mice, i.v., 0.5 mg/kg, comparison in words): highest
CCCCCCCCC(CCCCCCCC)OC(=O)CCCCCCCN(CCO)CCCCCCCC(=O)N(C)CCCCCCCC [Compound 145, Heptadecan-9-yl 8-((2-hydroxyethyl)(8-(methyl(octyl)amino)-8-oxooctyl)amino)octanoate] | 0.140 | 176.5 | 5.01E+08 | 1.36E+07 | 4.25E+08 | 89.15 | 7.11E+09 | 6.50E+09 | 2.38E+08 | 7.25 | 0.89 | 0.983 | 8.1E+10 |  |  | 
CCCCCCCCC(CCCCCCCC)OC(=O)CCCCCCCN(CCO)CCCCCC(=O)N(C)CCCCCCCC [Compound 146, Heptadecan-9-yl 8-((2-hydroxyethyl)(6-(methyl(octyl)amino)-6-oxohexyl)amino)octanoate] | 0.210 | 97.0 | 7.24E+06 | 3.88E+06 | 5.11E+07 | 91.94 | 9.48E+07 | 8.39E+07 | 2.30E+06 | 7.78 | 0.011 | 0.013 | 1.04E+09 |  |  | 
CCCCCCCCC(CCCCCCCC)OC(=O)CCCCCCCN(C)CCCCCCCCCC(=O)OCCCCCCC [Compound 149, Heptyl 10-((8-(heptadecan-9-yloxy)-8-oxooctyl)(methyl)amino)decanoate] | 0.110 | 62.1 | 1.11E+09 | 2.69E+06 | 2.71E+07 | 98.00 | 1.01E+10 | 8.33E+09 | 3.45E+08 | 6.284 |  |  |  | 0.55 | 1.057E+011 | 
CCCCCCCCCOC(=O)CCCCCCCN(CCO)CCCCCCC/C=C\C(CCCCCCCC)CCCCCCCC [Compound 152, Nonyl (Z)-8-((2-hydroxyethyl)(10-octyloctadec-8-en-1-yl)amino)octanoate] | 0.072 | 62.6 | 1.43E+08 | 3.16E+05 | 6.63E+06 | 99.29 | 1.56E+09 | 2.45E+09 | 4.95E+07 | 6.465 |  |  |  | 0.15 | 2.855E+010 | 
CCCCCCCCCOC(=O)CCCCCCCN(CCCCCCCC(=O)OC(CCCCCCCC)CCCCCCCC)CCOCCO [Compound 154, Heptadecan-9-yl 8-((2-(2-hydroxyethoxy)ethyl)(8-(nonyloxy)-8-oxooctylamino octanoate] | 0.110 | 92.9 | 3.62E+08 | 2.89E+06 | 1.30E+07 | 94.28 | 2.49E+09 | 4.89E+09 | 6.26E+07 | 6.827 |  |  |  | 0.29 | 5.560E+010 | 
CCCCCCCCC(CCCCCCCC)OC(=O)CCCCCCCN(CCO)CCCCCCCC(=O)OC(C)(C)C [Compound 155, tert-Butyl 8-((8-(heptadecan-9-yloxy)-8-oxooctyl)(2-hydroxyethyl)amino)octanoate] | 0.240 | 208.3 | 8.58E+08 | 1.00E+07 | 2.77E+08 | 37.36 | 2.49E+09 | 1.15E+10 | 1.99E+08 | 6.576 |  |  |  | 0.66 | 1.266E+011 | 
CCCCCCCCCOC(=O)CCCCCCCN(CCO)CCCCCCCC(=O)OC(C)(C)C [Compound 158, tert-Butyl 8-((2-hydroxyethyl)(8-(nonyloxy)-8-oxooctyl)amino)octanoate] | 0.080 | 251.8 | 1.99E+05 | 1.71E+04 | 1.17E+05 | 35.70 | 2.69E+05 | 9.82E+05 | 1.55E+05 | 6.953 |  |  |  | <0.01 | 1.211E+007 | flux at all timepoints measured (luciferase (Luc) mRNA [5]; mice, i.v., 0.5 mg/kg): significantly lower flux
CCCCCCCCCOC(=O)CCCCCCCN(CCO)CCN(CCO)CCCCCCCC(=O)OC(CCCCCCCC)CCCCCCCC [Compound 159, Heptadecan-9-yl 8-((2-hydroxyethyl)(2-((2-hydroxyethyl)(8-(nonyloxy)-8-oxooctyl)amino)ethyl)amino)octanoate] | 0.190 | 75.9 | 1.13E+06 | 2.17E+05 | 7.24E+05 | 99.29 | 3.32E+06 | 1.20E+07 | 4.98E+05 | 7.873 |  |  |  | <0.01 | 1.355E+008 | 
